# Experimental data published in patent US20250129104A1, “7H-PYRROLO[2,3-D]PYRIMIDINES AND PREPARATION AND USES THEREOF” (BioSplice Therapeutics, Inc., priority 2021, published 2025).
# Columns and labels:
# [1] = target: recombinant DYRK1A kinase (Homo sapiens (Human), UniProt Q13627); experiment: DYRK1A kinase assay (Ser/Thr 18 peptide Z-lyte FRET assay); format: biochemical; conditions: DYRK1A kinase activity; 15 μM ATP, 1 h room temperature; method text calls the value IC50
# How it was run: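 Recombinant human DYRK1A (0.25 μg/mL) with 15 μM ATP and 4 μM Ser/Thr 18 peptide, 1 h at room temperature with compound (11-point, 1:3, 10 μM top, duplicate). Z-lyte development 1 h, then coumarin/fluorescein FRET emission ratio converted to % phosphorylation; IC50 by non-linear regression.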
# [2] = tested on: Tau phosphorylation at Thr212 (pThr212); experiment: tau phosphorylation assay: phosphoTau (Thr212) AlphaLISA in HEK293T cells transfected with DYRK1A and MAPT; format: cell-based; conditions: HEK-293T; HEK293T cells transfected with human DYRK1A and MAPT; 18-24 h compound treatment; read-out: pTau (Thr212) EC50
# How it was run: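 HEK293T cells transiently co-transfected with human untagged DYRK1A and MAPT (441 aa Tau), reseeded, then treated 18-24 h at 37 °C with compounds (10-point 1:3 series, 20 μM to 1.1 nM final, duplicates). Lysates probed by AlphaLISA with HT7 donor and pThr212 acceptor antibodies; EC50 from curve fit of signal.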
Structure (SMILES),EC50 [1] [nM],EC50 [2] [nM]
"CO[C@H]1C[C@@H](Nc2ncc3c(-c4ccn5nccc5c4)c[nH]c3n2)C1 [Compound 1140, N-(cis-3-Methoxycyclobutyl)-5-(pyrazolo[1,5-a]pyridin-5-yl)-7H-pyrrolo [2,3-d]pyrimidin-2-amine]",2.6,6
"c1cc2cc(-c3c[nH]c4nc(NC5CC6(COC6)C5)ncc34)ccn2n1 [Compound 1141, 5-(Pyrazolo[1,5-a]pyridin-5-yl)-N-(2-oxaspiro[3.3]heptan-6-yl)-7H-pyrrolo [2,3-d]pyrimidin-2-amine]",385,7
"FC1(F)CCC(Nc2ncc3c(-c4ccn5nccc5c4)c[nH]c3n2)CC1 [Compound 1142, N-(4,4-Difluorocyclohexyl)-5-(pyrazolo[1,5-a]pyridin-5-yl)-7H-pyrrolo[2,3-d]pyrimidin-2-amine]",5.7,32
"CO[C@H]1CC[C@@H](Nc2ncc3c(-c4ccn5nccc5c4)c[nH]c3n2)CC1 [Compound 1143, N-(cis-4-Methoxycyclohexyl)-5-(pyrazolo[1,5-a]pyridin-5-yl)-7H-pyrrolo [2,3-d]pyrimidin-2-amine]",3.7,4
"c1cc2cc(-c3c[nH]c4nc(NC5CCOCC5)ncc34)ccn2n1 [Compound 1148, 5-(Pyrazolo[1,5-a]pyridin-5-yl)-N-(tetrahydro-2H-pyran-4-yl)-7H-pyrrolo [2,3-d]pyrimidin-2-amine]",4.2,11
"CC(C)(F)CNc1ncc2c(-c3ccn4ncc(C(=O)N5CCCCC5)c4c3)c[nH]c2n1 [Compound 1214, (5-(2-((2-Fluoro-2-methylpropyl)amino)-7H-pyrrolo[2,3-d]pyrimidin-5-yl)pyrazolo[1,5-a]pyridin-3-yl)(piperidin-1-yl)methanone]",9.7,219
"CN1CCC(Nc2ncc3c(-c4ccn5ncc(C(=O)N6CCCCC6)c5c4)c[nH]c3n2)CC1 [Compound 1233, (5-(2-((1-Methylpiperidin-4-yl)amino)-7H-pyrrolo[2,3-d]pyrimidin-5-yl)pyrazolo[1,5-a]pyridin-3-yl)(piperidin-1-yl)methanone]",18.1,116
"O=C(NCC(F)F)c1cnn2ccc(-c3c[nH]c4nc(C5CC5)ncc34)cc12 [Compound 1249, 5-(2-Cyclopropyl-7H-pyrrolo[2,3-d]pyrimidin-5-yl)-N-(2,2-difluoroethyl) pyrazolo[1,5-a]pyridine-3-carboxamide]",1.6,27
"O=C(NCC(F)F)c1cnn2ccc(-c3c[nH]c4nc(C5CCC5)ncc34)cc12 [Compound 1250, 5-(2-Cyclobutyl-7H-pyrrolo[2,3-d]pyrimidin-5-yl)-N-(2,2-difluoroethyl) pyrazolo[1,5-a]pyridine-3-carboxamide]",14.6,141
"CC(C)(F)CNC(=O)c1cnn2ccc(-c3c[nH]c4nc(C5CC5)ncc34)cc12 [Compound 1292, 5-(2-Cyclopropyl-7H-pyrrolo[2,3-d]pyrimidin-5-yl)-N-(2-fluoro-2-methylpropyl)pyrazolo[1,5-a]pyridine-3-carboxamide]",2.3,54
"C[C@@H](NC(=O)c1cnn2ccc(-c3c[nH]c4nc(C5CC5)ncc34)cc12)C(F)(F)F [Compound 1335, (R)-5-(2-Cyclopropyl-7H-pyrrolo[2,3-d]pyrimidin-5-yl)-N-(1,1,1-trifluoropropan-2-yl)pyrazolo[1,5-a]pyridine-3-carboxamide]",17.7,236
"O=C(NC1CC(F)(F)C1)c1cnn2ccc(-c3c[nH]c4nc(C5CC5)ncc34)cc12 [Compound 1378, 5-(2-Cyclopropyl-7H-pyrrolo[2,3-d]pyrimidin-5-yl)-N-(3,3-difluorocyclobutyl)pyrazolo[1,5-a]pyridine-3-carboxamide]",2.6,604
"CN1CCC(NC(=O)c2cnn3ccc(-c4c[nH]c5nc(C6CCC6)ncc45)cc23)CC1 [Compound 1509, 5-(2-Cyclobutyl-7H-pyrrolo[2,3-d]pyrimidin-5-yl)-N-(1-methylpiperidin-4-yl)pyrazolo[1,5-a]pyridine-3-carboxamide]",39.9,7020
"CN1CCC(NC(=O)c2cnn3ccc(-c4c[nH]c5nc(NCC(C)(C)C)ncc45)cc23)CC1 [Compound 1516, N-(1-Methylpiperidin-4-yl)-5-(2-(neopentylamino)-7H-pyrrolo[2,3-d]pyrimidin-5-yl)pyrazolo[1,5-a]pyridine-3-carboxamide]",5.8,34
"CN1CCC(NC(=O)c2cnn3ccc(-c4c[nH]c5nc(NCC6(F)CCCCC6)ncc45)cc23)CC1 [Compound 1535, 5-(2-(((1-Fluorocyclohexyl)methyl)amino)-7H-pyrrolo[2,3-d]pyrimidin-5-yl)-N-(1-methylpiperidin-4-yl)pyrazolo[1,5-a]pyridine-3-carboxamide]",1.2,24
"CN1CCC(Nc2ncc3c(-c4ccn5ncc(C(=O)Nc6cccnc6)c5c4)c[nH]c3n2)CC1 [Compound 1624, 5-(2-((1-Methylpiperidin-4-yl)amino)-7H-pyrrolo[2,3-d]pyrimidin-5-yl)-N-(pyridin-3-yl)pyrazolo[1,5-a]pyridine-3-carboxamide]",3.7,3910
"CC(C)(F)CNc1ncc2c(-c3ccn4nccc4n3)c[nH]c2n1 [Compound 1648, N-(2-Fluoro-2-methylpropyl)-5-(pyrazolo[1,5-a]pyrimidin-5-yl)-7H-pyrrolo [2,3-d]pyrimidin-2-amine]",3.9,152

# Next, values leading:
EC50 [1] [nM],EC50 [2] [nM],Structure (SMILES)
10.5,120,"CC1(CNc2ncc3c(-c4ccn5nccc5n4)c[nH]c3n2)CC1 [Compound 1658, N-((1-Methylcyclopropyl)methyl)-5-(pyrazolo[1,5-a]pyrimidin-5-yl)-7H-pyrrolo[2,3-d]pyrimidin-2-amine]"
19.9,141,"FC(F)(F)C1(CNc2ncc3c(-c4ccn5nccc5n4)c[nH]c3n2)CC1 [Compound 1659, 5-(Pyrazolo[1,5-a]pyrimidin-5-yl)-N-((1-(trifluoromethyl)cyclopropyl)methyl)-7H-pyrrolo[2,3-d]pyrimidin-2-amine]"
13.4,103,"FC1(CNc2ncc3c(-c4ccn5nccc5n4)c[nH]c3n2)CCC1 [Compound 1662, N-((1-Fluorocyclobutyl)methyl)-5-(pyrazolo[1,5-a]pyrimidin-5-yl)-7H-pyrrolo[2,3-d]pyrimidin-2-amine]"
6,56,"CO[C@H]1CC[C@@H](Nc2ncc3c(-c4ccn5nccc5n4)c[nH]c3n2)CC1 [Compound 1664, N-(cis-4-Methoxycyclohexyl)-5-(pyrazolo[1,5-a]pyrimidin-5-yl)-7H-pyrrolo[2,3-d]pyrimidin-2-amine]"
2.1,168,"CN1CCN(c2cc(Nc3ncc4c(-c5ccc6c(c5)C(C)(C)CNC6=O)c[nH]c4n3)ccn2)CC1 [Compound 1849, 4,4-Dimethyl-6-(2-((2-(4-methylpiperazin-1-yl)pyridin-4-yl)amino)-7H-pyrrolo[2,3-d]pyrimidin-5-yl)-3,4-dihydroisoquinolin-1(2H)-one]"
9,2,"CO[C@H]1CC[C@@H](Nc2ncc3c(-c4ccc5ncccc5c4)c[nH]c3n2)CC1 [Compound 1885, N-(cis-4-Methoxycyclohexyl)-5-(quinolin-6-yl)-7H-pyrrolo[2,3-d]pyrimidin-2-amine]"
3.1,22,"CN1CCC(Nc2ncc3c(-c4ccc5ncccc5c4)c[nH]c3n2)CC1 [Compound 1888, N-(1-Methylpiperidin-4-yl)-5-(quinolin-6-yl)-7H-pyrrolo[2,3-d]pyrimidin-2-amine]"
4.9,47,"CC(C)(F)CNc1ncc2c(-c3ccc4nccnc4c3)c[nH]c2n1 [Compound 1913, N-(2-Fluoro-2-methylpropyl)-5-(quinoxalin-6-yl)-7H-pyrrolo[2,3-d]pyrimidin-2-amine]"
3.7,111,"FC1(F)CCC(Nc2ncc3c(-c4ccc5nccnc5c4)c[nH]c3n2)CC1 [Compound 1928, N-(4,4-Difluorocyclohexyl)-5-(quinoxalin-6-yl)-7H-pyrrolo[2,3-d]pyrimidin-2-amine]"
5.3,10,"CO[C@H]1CC[C@@H](Nc2ncc3c(-c4ccc5nccnc5c4)c[nH]c3n2)CC1 [Compound 1929, N-(cis-4-Methoxycyclohexyl)-5-(quinoxalin-6-yl)-7H-pyrrolo[2,3-d]pyrimidin-2-amine]"
